biological target: Human neutrophil elastase (Homo sapiens (Human), UniProt P08246); test: Human Neutrophil Elastase Assay; format: biochemical; settings: substrate MeOSuc-Ala-Ala-Pro-Val-AMC 250 μM, fluorescence, pH 7.5
Experimental: Human Neutrophil Elastase Assay
All other materials were of the highest grade commercially available.
The following buffers were used: Compound buffer: 100 mM Tris, 500 mM NaCl, adjusted to pH 7.5; Assay buffer: 100 mM Tris, 500 mM NaCl, adjusted to pH 7.5, containing 0.01% BSA.
Assay conditions: Test compounds were prediluted in DMSO and subsequently in compound buffer (5% DMSO final). […] After inactivation of the enzyme, fluorescence intensities were measured at 380 nm excitation and 460 nm emission wavelengths.
Each plate contains wells with a high value control (DMSO+enzyme+substrate) and wells with a low value control (DMSO+inactivated enzyme+substrate). IC50 values were estimated using a sigmoidal concentration response curve with variable slope. Means of low values were taken as 0%, means of high values as 100%. IC50 values of selected compound in the Neutrophil Elastase assay: […]

Human neutrophil elastase, sequence (P08246 30-247): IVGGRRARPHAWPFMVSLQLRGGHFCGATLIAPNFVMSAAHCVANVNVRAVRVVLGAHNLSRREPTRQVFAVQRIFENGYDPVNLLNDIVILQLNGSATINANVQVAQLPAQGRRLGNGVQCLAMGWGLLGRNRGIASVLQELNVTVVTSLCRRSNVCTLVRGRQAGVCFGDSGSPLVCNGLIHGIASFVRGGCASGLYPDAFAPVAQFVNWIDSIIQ

Going from `CN=S(=O)(c1ccc(CNC(=O)c2cn(C(C)C)c(C)c(-c3cccc(C(F)(F)F)c3)c2=O)cc1)N(C)C` (stereo not shown) [Example 60, 5-(3-Trifluoromethyl-phenyl)-1-isopropyl-6-methyl-4-oxo-1,4-dihydro-pyridine-3-carboxylic acid 4-(N,N,N′-trimethylsulfamimidoyl)-benzylamide] to `CN=S(=O)(c1ccc(CNC(=O)c2cn(C(C)C)c(C)c(-c3cccc(C(F)F)c3)c2=O)cc1)N(C)C` (stereo not shown) [Example 61, 5-(3-Difluoromethyl-phenyl)-1-isopropyl-6-methyl-4-oxo-1,4-dihydro-pyridine-3-carboxylic acid 4-(N,N,N′-trimethylsulfamimidoyl)-benzylamide], the IC50 falls from 22 nM to 10.2 nM (2.2-fold).

`Cc1c(-c2cccc(C(F)(F)F)c2)c(=O)c(C(=O)NCc2ccc(S(C)(=O)=NC#N)cc2F)cn1C(C)C` (stereo not shown) [Example 14] and `Cc1cc(S(C)(=O)=NC#N)ccc1CNC(=O)c1cn(C(C)C)c(C)c(-c2cccc(C(F)(F)F)c2)c1=O` (stereo not shown) [Example 15] are within 1.5-fold of each other in IC50: 1.5 nM for the first, 2.2 nM for the second.

Compared with `Cc1c(-c2cccc(C(F)(F)F)c2)c(=O)c(C(=O)NCc2ccc(S(C)(=O)=NS(C)(=O)=O)cc2)cn1C(C)C` (stereo not shown) [Example 17], `Cc1c(-c2cccc(C(F)(F)F)c2)c(=O)c(C(=O)NCc2ccc(S(=O)(=NC#N)C3CC3)cc2)cn1C(C)C` (stereo not shown) [Example 63, 1-Isopropyl-6-methyl-4-oxo-5-(3-trifluoromethyl-phenyl)-1,4-dihydro-pyridine-3-carboxylic acid 4-(S-cyclopropyl-N-cyanosulfonimidoyl)-benzylamide] is 5.2-fold lower in IC50: 7.3 nM for the first, 1.4 nM for the second. The second is the more potent here.

Going from `CCn1cc(C(=O)NCc2ccc(S(=O)(CC)=NC#N)cc2)c(=O)c(-c2cccc(C(F)F)c2)c1C` (stereo not shown) [Example 29] to `CCn1cc(C(=O)NCc2ccc(S(C)(=O)=NC#N)cc2)c(=O)c(-c2cccc(C(F)F)c2)c1C` (stereo not shown) [Example 5, 5-(3-Difluoromethyl-phenyl)-1-ethyl-6-methyl-4-oxo-1,4-dihydro-pyridine-3-carboxylic acid 4-(N-cyano-S-methylsulfonimidoyl)-benzylamide], the IC50 rises from 1.5 nM to 2.5 nM (1.7-fold). The first is the more potent here.

`Cc1c(-c2ccnc(C(F)(F)F)c2)c(=O)c(C(=O)NCc2ccc(S(C)(=O)=NC#N)cc2)cn1-c1ccncc1` (single isomer, unassigned) [Example 46] and `Cc1c(-c2ccnc(C(F)(F)F)c2)c(=O)c(C(=O)NCc2ccc(S(C)(=O)=NC#N)cc2)cn1-c1cccnc1` (single isomer, unassigned) [Example 45] are within 1.5-fold of each other in IC50: 11.7 nM for the first, 14.4 nM for the second.

Going from `Cc1c(-c2cccc(C(F)(F)F)c2)c(=O)c(C(=O)NCc2ccc(S(C)(=O)=NC#N)cc2)cn1C1CCCOC1` (stereo not shown) [Example 55] to `Cc1c(-c2cccc(C(F)(F)F)c2)c(=O)c(C(=O)NCc2ccc(S(=O)(=NC#N)C(C)C)cc2)cn1C1CC1` (single isomer, unassigned) [Example 22B], the IC50 falls from 1.8 nM to 1.2 nM (1.5-fold).

Going from `Cc1c(-c2cccc(C(F)(F)F)c2)c(=O)c(C(=O)NCc2ccc(S(C)(=O)=NC#N)cc2)cn1-c1ccnn1C` (stereo not shown) [Example 8, 6-Methyl-1-(2-methyl-2H-pyrazol-3-yl)-4-oxo-5-(3-trifluoromethyl-phenyl)-1,4-dihydro-pyridine-3-carboxylic acid 4-(N-cyano-S-methylsulfonimidoyl)-benzylamide] to `CCS(=O)(=NC#N)c1ccc(CNC(=O)c2cn(-c3ccnn3C)c(C)c(-c3cccc(C(F)(F)F)c3)c2=O)cc1` (stereo not shown) [Example 18], the IC50 falls from 2.4 nM to 1.5 nM (1.6-fold). The second is the more potent here.

First: CCn1cc(C(=O)NCc2ccc(S(=O)(=NC#N)C(C)C)cc2)c(=O)c(-c2cccc(C(F)F)c2)c1C (stereo not shown) [Example 30]
Second: Cc1c(-c2cccc(C(F)F)c2)c(=O)c(C(=O)NCc2ccc(S(C)(=O)=NC#N)cc2)cn1C(C)C (single isomer, unassigned) [Example 1A, 5-(3-Difluoromethyl-phenyl)-1-isopropyl-6-methyl-4-oxo-1,4-dihydro-pyridine-3-carboxylic acid 4-(N-cyano-S-methylsulfonimidoyl)-benzylamide]
The IC50 of the first is lower: less than 1 nM for the first, 3.1 nM for the second. The first is the more potent here.

Going from `Cc1c(-c2cccc(C(F)F)c2)c(=O)c(C(=O)NCc2ccc(S(C)(=O)=NC#N)cc2)cn1-c1ccnn1C` (stereo not shown) [Example 7, 5-(3-Difluoromethyl-phenyl)-6-methyl-1-(2-methyl-2H-pyrazol-3-yl)-4-oxo-1,4-dihydro-pyridine-3-carboxylic acid 4-(N-cyano-S-methylsulfonimidoyl)-benzylamide] to `Cc1c(-c2cccc(C(F)F)c2)c(=O)c(C(=O)NCc2ccc(S(=O)(=NC#N)C(C)C)cc2)cn1-c1ccnn1C` (stereo not shown) [Example 37], the IC50 falls from 2.1 nM to less than 1 nM. The second is the more potent here.

Compared with `CCn1cc(C(=O)NCc2ccc(S(=O)(CC)=NC#N)cc2)c(=O)c(-c2cccc(C(F)(F)F)c2)c1C` (single isomer, unassigned) [Example 10A], `CCS(=O)(=NC#N)c1ccc(CNC(=O)c2cn(C3CC3)c(C)c(-c3cccc(C(F)(F)F)c3)c2=O)cc1` (single isomer, unassigned) [Example 21A] is 1.9-fold higher in IC50: 2.7 nM for the first, 5.2 nM for the second.

`Cc1c(-c2cccc(C(F)F)c2)c(=O)c(C(=O)NCc2ccc(S(C)(=O)=NC#N)cc2)cn1-c1ccccc1` (single isomer, unassigned) [Example 38] and `Cc1c(-c2cccc(C(F)F)c2)c(=O)c(C(=O)NCc2ccc(S(C)(=O)=NC#N)cc2)cn1-c1ccncc1` (single isomer, unassigned) [Example 40] are within 1.5-fold of each other in IC50: 3.7 nM for the first, 4 nM for the second.

Going from `CCn1cc(C(=O)NCc2ccc(S(=O)(=NC#N)C(C)C)cc2)c(=O)c(-c2cccc(C(F)F)c2)c1C` (single isomer, unassigned) [Example 30A] to `CCS(=O)(=NC#N)c1ccc(CNC(=O)c2cn(-c3ccnn3C)c(C)c(-c3cccc(C(F)F)c3)c2=O)cc1` (stereo not shown) [Example 36], the IC50 falls from 1.8 nM to 1 nM (1.8-fold). The second is the more potent here.

Compared with `Cc1c(-c2ccc(F)c(C(F)F)c2)c(=O)c(C(=O)NCc2ccc(S(C)(=O)=NC#N)cc2)cn1C(C)C` (single isomer, unassigned) [Example 42], `Cc1c(-c2ccc(F)c(C(F)(F)F)c2)c(=O)c(C(=O)NCc2ccc(S(C)(=O)=NC#N)cc2)cn1C(C)C` (single isomer, unassigned) [Example 41] is 2.6-fold lower in IC50: 4.7 nM for the first, 1.8 nM for the second. The second is the more potent here.

Going from `Cc1c(-c2cccc(C(F)(F)F)c2)c(=O)c(C(=O)NCc2ccc(S(C)(=O)=NC#N)cc2)cn1Cc1ccc(C#N)cc1` (stereo not shown) [Example 9, 1-(4-Cyano-benzyl)-6-methyl-4-oxo-5-(3-trifluoromethyl-phenyl)-1,4-dihydro-pyridine-3-carboxylic acid 4-(N-cyano-S-methylsulfonimidoyl)-benzylamide] to `Cc1ccncc1-n1cc(C(=O)NCc2ccc(S(C)(=O)=NC#N)cc2)c(=O)c(-c2cccc(C(F)(F)F)c2)c1C` (stereo not shown) [Example 57], the IC50 rises from less than 1 nM to 1.7 nM. The first is the more potent here.

`Cc1c(-c2ccnc(C(F)(F)F)c2)c(=O)c(C(=O)NCc2ccc(S(C)(=O)=NC#N)cc2)cn1C(C)C` (single isomer, unassigned) [Example 3A, 1-Isopropyl-2-methyl-4-oxo-2′-trifluoromethyl-1,4-dihydro-[3,4′]-bipyridinyl-5-carboxylic acid 4-(N-cyano-S-methylsulfonimidoyl)-benzylamide] and `Cc1c(-c2ccnc(C(F)(F)F)c2)c(=O)c(C(=O)NCc2ccc(S(C)(=O)=NC#N)cc2)cn1-c1ccccn1` (single isomer, unassigned) [Example 44] are within 1.5-fold of each other in IC50: 12 nM for the first, 14.9 nM for the second.

With `Cc1c(-c2cccc(C(F)(F)F)c2)c(=O)c(C(=O)NCc2ccc(S(C)(=O)=NC#N)cc2)cn1-c1nccs1` (stereo not shown) [Example 56] the IC50 was 3.1 nM.
